Reference: ChEMBL document CHEMBL1154483, “Mechanistic aspects of benzothiazepines: a class of antiarrhythmic drugs” (Eur J Med Chem, 2009)

Assay: Inhibition of calcium channel

IC50 | Compound
6.5 nM | COc1ccc([C@@H]2Sc3ccccc3N(CCN(C)CCc3ccc(OC)c(OC)c3)C(=O)[C@@H]2OC(C)=O)cc1
337 nM | COc1ccc([C@@H]2Sc3ccccc3N(CCN(C)C)C(=O)[C@@H]2OC(C)=O)cc1 [DILTIAZEM]
